The experiment deals with T1, human mAChR M4 (Homo sapiens, UniProt P08173).
T1 construct: expressed in transfected cells; host or cells: CHO-K1 (American Type Culture Collection), stably expressing hM4 and Gqi5
T1 sequence (P08173 1-479): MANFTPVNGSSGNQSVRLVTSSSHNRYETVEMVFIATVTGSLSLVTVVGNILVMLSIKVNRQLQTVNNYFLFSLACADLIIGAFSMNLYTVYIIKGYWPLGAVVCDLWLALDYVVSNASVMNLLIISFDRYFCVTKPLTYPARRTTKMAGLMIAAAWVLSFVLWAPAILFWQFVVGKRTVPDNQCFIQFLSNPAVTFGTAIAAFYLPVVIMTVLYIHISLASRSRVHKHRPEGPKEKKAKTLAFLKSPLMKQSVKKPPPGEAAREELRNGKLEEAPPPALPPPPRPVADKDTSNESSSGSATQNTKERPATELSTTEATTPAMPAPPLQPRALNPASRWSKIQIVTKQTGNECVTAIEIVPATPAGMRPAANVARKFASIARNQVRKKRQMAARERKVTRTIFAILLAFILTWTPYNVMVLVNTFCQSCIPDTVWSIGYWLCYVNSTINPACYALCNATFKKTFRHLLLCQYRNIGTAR
In words: mAChR M4 cell-based functional assay: calcium mobilization (Fluo-4, FDSS), potentiation of EC20 acetylcholine response in hM4-Gqi5 CHO-K1 cells. Further details: Emax: dose or concentration left out as unconfirmed. As to conditions: for Emax at 30 µM: CHO-K1, % ACh maximum at 30 μM; for Emax at 30 µM / EC50: human M4; for EC50: potentiation of EC20 acetylcholine response, calcium mobilization. As to the method: Human and rat M4 cDNAs, along with the chimeric G protein Gqi5, were transfected into Chinese hamster ovary (CHO-K1) cells purchased from the American Type Culture Collection using Lipofectamine2000. hM4-Gqi5 cells were grown in Ham's F-12 medium containing 10% heat-inactivated fetal bovine serum (FBS), 20 mM HEPES, 50 μg/mL G418 sulfate, and 500 μg/mL Hygromycin B. rM4-Gqi5 cells were grown in DMEM containing 10% heat-inactivated FBS, 20 mM HEPES, 400 μg/mL G418 sulfate, and 500 μg/mL Hygromycin B.
For high throughput measurement of agonist-evoked increases in intracellular calcium, CHO-K1 cells stably expressing muscarinic receptors were plated in growth medium lacking G418 and hygromycin at 15,000 cells/20 μL/well in Greiner 384-well black-walled, tissue culture (TC)-treated, clear-bottom plates (VWR). Cells were incubated overnight at 37° C. and 5% CO2. The next day, cells were washed using an ELX 405 (BioTek) with assay buffer; the final volume was then aspirated to 20 μL. Next, 20 μL of a […] of Fluo-4/acetoxymethyl ester (Invitrogen, Carlsbad, CA), prepared as a 2.3 mM stock in DMSO and mixed in a 1:1 ratio with 10% (w/v) Pluronic F-127 and diluted in assay buffer, was added to the wells and the cell plates were incubated for 50 min at 37° C. and 5% CO2. Dye was removed by washing with the ELX 405 and the final volume was aspirated to 20 μL. Compound master plates were formatted in an 11 point concentration-response curve (CRC) format (1:3 dilutions) in 100% DMSO with a starting concentration of 10 mM using a BRAVO liquid handler (Agilent). Test compound CRCs were then transferred to daughter plates (240 nL) using the Echo acoustic plate reformatter (Labcyte, Sunnyvale, CA) and then diluted into assay buffer (40 μL) to a 2× stock using a Thermo Fisher Combi (Thermo Fisher Scientific, Waltham, MA).
Calcium flux was measured using the Functional Drug Screening System (FDSS) 6000 or 7000 (Hamamatsu Corporation, Tokyo, Japan) as an increase in the fluorescent static ratio. Compounds were applied to cells (20 μL, 2X) using the automated system of the FDSS at 2-4 seconds into the protocol and the data were collected at 1 Hz. At 144 seconds, 10 μL of an EC20 concentration of the muscarinic receptor agonist acetylcholine was added (5×), followed by the addition of 12 μL of an […] concentration of acetylcholine at the 230 second time point (5×). Agonist activity was analyzed as a concentration-dependent increase in calcium mobilization upon compound addition. Positive allosteric modulator activity was analyzed as a concentration-dependent increase in the EC20 acetylcholine response. Antagonist activity was analyzed as a concentration-dependent decrease in the EC20 acetylcholine response. Concentration-response curves were generated using a four-parameter logistical equation in XLFit curve fitting software (IDBS, Bridgewater, NJ) for Excel (Microsoft, Redmond, WA) or Prism (GraphPad Software, Inc., San Diego, CA).
Compounds were synthesized as described above. Activity (EC50 and Emax) was determined in the mAChR M4 cell-based functional assay as described above and the data are shown in Table 4. The compound number corresponds to the compound numbers used in Tables 1-3.

The record followed here is patent US20250101041A1, “POSITIVE ALLOSTERIC MODULATORS OF THE MUSCARINIC ACETYLCHOLINE RECEPTOR M4” (Vanderbilt University, priority 2022, published 2025).

One may read the Emax as the size of the effect at its maximum, as opposed to the concentration needed. As a reminder, the EC50 is the concentration that produces a half-maximal response. Turning to `Cc1cc(=O)n2nc(N3CCc4ncc(C(F)(F)F)cc4C3)c(C)cc2n1` [Compound 1-16, 2,8-dimethyl-7-(3-(trifluoromethyl)-7,8-dihydro-1,6-naphthyridin-6(5H)-yl)-4H-pyrimido[1,2-b]pyridazin-4-one], the Emax at 30 µM was found to be 71% and the EC50 was determined as 0.34 µM.
In the case of `Cc1cc2nc(C(F)(F)F)cc(=O)n2nc1N1CCc2ncc(C(F)(F)F)cc2C1` [Compound 1-17, 8-methyl-2-(trifluoromethyl)-7-(3-(trifluoromethyl)-7,8-dihydro-1,6-naphthyridin-6(5H)-yl)-4H-pyrimido[1,2-b]pyridazin-4-one], the Emax at 30 µM came to 79% and the EC50 came to 0.105 µM.
`Cc1nc2c(C)c(C)c(N3CCc4ncc(C(F)(F)F)cc4C3)nn2c(=O)c1F` [Compound 1-18, 3-fluoro-2,8,9-trimethyl-7-(3-(trifluoromethyl)-7,8-dihydro-1,6-naphthyridin-6(5H)-yl)-4H-pyrimido[1,2-b]pyridazin-4-one]: the Emax at 30 µM was found to be 106% and the EC50 came to 0.094 µM.
Regarding `Cc1cc2ncc(N3CCOCC3)c(=O)n2nc1N1CCc2ncc(C(F)(F)F)cc2C1` [Compound 1-19, 8-Methyl-3-morpholino-7-(3-(trifluoromethyl)-7,8-dihydro-1,6-naphthyridin-6(5H)-yl)-4H-pyrimido[1,2-b]pyridazin-4-one], the Emax at 30 µM came to 70% and the EC50 amounted to 0.113 µM.
In the case of `Cc1cc2ncc(C3=CCCC3)c(=O)n2nc1N1CCc2ncc(C(F)(F)F)cc2C1` [Compound 1-20, 3-(Cyclopent-1-en-1-yl)-8-methyl-7-(3-(trifluoromethyl)-7,8-dihydro-1,6-naphthyridin-6(5H)-yl)-4H-pyrimido[1,2-b]pyridazin-4-one], the Emax at 30 µM amounted to 70% and the concentration for a half-maximal effect (EC50) was found to be 0.586 µM.
Consider `Cc1cc2ncc(-c3ccccc3)c(=O)n2nc1N1CCc2ncc(C(F)(F)F)cc2C1` [Compound 1-21, 8-methyl-3-phenyl-7-(3-(trifluoromethyl)-7,8-dihydro-1,6-naphthyridin-6(5H)-yl)-4H-pyrimido[1,2-b]pyridazin-4-one], for which the Emax at 30 µM is 75% and the EC50 came to 0.136 µM.
Consider `C=Cc1cnc2cc(C)c(N3CCc4ncc(C(F)(F)F)cc4C3)nn2c1=O` [Compound 1-22, 8-Methyl-7-(3-(trifluoromethyl)-7,8-dihydro-1,6-naphthyridin-6(5H)-yl)-3-vinyl-4H-pyrimido[1,2-b]pyridazin-4-one], for which the EC50 was 0.246 µM. The Emax (CHO-K1) worked out at 73%.
`Cc1cc2ncc(C3CCCC3)c(=O)n2nc1N1CCc2ncc(C(F)(F)F)cc2C1` [Compound 1-23, 3-Cyclopentyl-8-methyl-7-(3-(trifluoromethyl)-7,8-dihydro-1,6-naphthyridin-6(5H)-yl)-4H-pyrimido[1,2-b]pyridazin-4-one]: the Emax at 30 µM is 75% and the EC50 was 0.363 µM.
On to `CCc1cnc2cc(C)c(N3CCc4ncc(C(F)(F)F)cc4C3)nn2c1=O` [Compound 1-24, 3-Ethyl-8-methyl-7-(3-(trifluoromethyl)-7,8-dihydro-1,6-naphthyridin-6(5H)-yl)-4H-pyrimido[1,2-b]pyridazin-4-one], for which the Emax at 30 µM was 75% and the EC50 came out at 0.309 µM.
The matching figures for `Cc1cc2nc(C)c(C)c(=O)n2nc1N1CCc2ncc(C(F)(F)F)cc2C1` [Compound 1-25, 2,3,8-trimethyl-7-(3-(trifluoromethyl)-7,8-dihydro-1,6-naphthyridin-6(5H)-yl)-4H-pyrimido[1,2-b]pyridazin-4-one]: 81% and 0.254 µM.
As for `Cc1cc2nc(C(F)F)cc(=O)n2nc1N1CCc2ncc(C(F)(F)F)cc2C1` [Compound 1-26, 2-(difluoromethyl)-8-methyl-7-(3-(trifluoromethyl)-7,8-dihydro-1,6-naphthyridin-6(5H)-yl)-4H-pyrimido[1,2-b]pyridazin-4-one], the Emax at 30 µM worked out at 74% and the concentration giving a half-maximal response (EC50) amounted to 0.141 µM.
On to `Cc1cc2nc(C3CC3)cc(=O)n2nc1N1CCc2ncc(C(F)(F)F)cc2C1` [Compound 1-27, 2-cyclopropyl-8-methyl-7-(3-(trifluoromethyl)-7,8-dihydro-1,6-naphthyridin-6(5H)-yl)-4H-pyrimido[1,2-b]pyridazin-4-one], for which the maximum response (Emax) at 30 µM is 76% and the 50% effective concentration (EC50) turned out to be 0.038 µM.
Take `Cc1cc2nc(C)c(Cl)c(=O)n2nc1N1CCc2ncc(C(F)(F)F)cc2C1` [Compound 1-28, 3-chloro-2,8-dimethyl-7-(3-(trifluoromethyl)-7,8-dihydro-1,6-naphthyridin-6(5H)-yl)-4H-pyrimido[1,2-b]pyridazin-4-one]: the Emax at 30 µM is 86% and the EC50 came to 0.04 µM.
`Cc1cc(=O)n2nc(N3CCc4ncc(-c5ccnn5C)cc4C3)c(C)cc2n1` [Compound 1-29, 2,8-dimethyl-7-(3-(1-methyl-1H-pyrazol-5-yl)-7,8-dihydro-1,6-naphthyridin-6(5H)-yl)-4H-pyrimido[1,2-b]pyridazin-4-one]: the Emax at 30 µM came out at 85% and the EC50 was found to be 0.146 µM.
The matching figures for `Cc1ccc(-c2cnc3c(c2)CN(c2nn4c(=O)cc(C)nc4cc2C)CC3)cn1` [Compound 1-30, 2,8-dimethyl-7-(3-(6-methylpyridin-3-yl)-7,8-dihydro-1,6-naphthyridin-6(5H)-yl)-4H-pyrimido[1,2-b]pyridazin-4-one]: 69% and 0.127 µM.
For `Cc1cc(=O)n2nc(N3CCc4ncc(-c5cnc(C)s5)cc4C3)c(C)cc2n1` [Compound 1-31, 2,8-dimethyl-7-(3-(2-methylthiazol-5-yl)-7,8-dihydro-1,6-naphthyridin-6(5H)-yl)-4H-pyrimido[1,2-b]pyridazin-4-one] the same measures were 83% and 0.104 µM.
For `Cc1cc(=O)n2nc(N3CCc4ncc(-c5cnn(C6CC6)c5)cc4C3)c(C)cc2n1` [Compound 1-32, 7-(3-(1-cyclopropyl-1H-pyrazol-4-yl)-7,8-dihydro-1,6-naphthyridin-6(5H)-yl)-2,8-dimethyl-4H-pyrimido[1,2-b]pyridazin-4-one] the same measures were 76% and 0.405 µM.
Consider `Cc1cc(=O)n2nc(N3CCc4ncc(C(F)(F)F)cc4C3)c(C)c(C)c2n1` [Compound 1-33, 2,8,9-trimethyl-7-(3-(trifluoromethyl)-7,8-dihydro-1,6-naphthyridin-6(5H)-yl)-4H-pyrimido[1,2-b]pyridazin-4-one], for which the Emax at 30 µM was found to be 77% and the EC50 is 0.064 µM.
Regarding `Cc1cc2nc(C(F)F)cc(=O)n2nc1N1CCc2ncc(-c3cn(C)nc3C)cc2C1` [Compound 1-34, 2-(difluoromethyl)-7-(3-(1,3-dimethyl-1H-pyrazol-4-yl)-7,8-dihydro-1,6-naphthyridin-6(5H)-yl)-8-methyl-4H-pyrimido[1,2-b]pyridazin-4-one], the Emax at 30 µM was 90% and the EC50 worked out at 0.073 µM.
